What all share (format): cell-based
One assay deals with OPM-2. Kind of assay: Cell viability, additional cell lines (CellTiter-Glo), OPM-2. The following applies: Homo sapiens, OPM-2, 72 h; read-out: Absolute IC50. How it is done: (§1) Tumor cells are grown at 37° C. in a humidified atmosphere with 5% CO2 in RPMI 1640 medium, supplemented with 10% (v/v) fetal calf serum and 50 μg/ml gentamicin for up to 20 passages, and are passaged once or twice weekly.
(§2) Cells are harvested from exponential phase cultures, counted and plated in 96 well flat-bottom microtiter plates at a cell density depending on the cell line's growth rate (4,000-20,000 cells/well depending on the cell line's growth rate, up to 60,000 for hematological cancer cell lines) in RPMI 1640 medium supplemented with 10% (v/v) fetal calf serum and 50 μg/ml gentamicin (140 μl/well). Cultures are incubated at 37° C. and 5% CO2 in a humidified atmosphere. After 24 h, 10 μl of test compounds or control medium are added and left on the cells for another 72 h. Compounds are serially diluted in DMSO, transferred in cell culture medium, and added to the assay plates by using a Tecan Freedom EVO 200 robotic platform. The DMSO concentration is kept constant at 0.3% v/v across the assay plate. Viability of cells is quantified by the CellTiter-Glo® cell viability assay (Promega G8462). After incubation of cells, 100 μl of CellTiter-Glo® One Solution Assay reagent are added to each well. Plates are shaken for 2 minutes to induce cell lysis and incubated for 20 minutes prior to reading luminescence (LU) by using the EnVision® Xcite multilabel plate reader (Perkin Elmer). […]
(In ATP-based viability assays light output follows the ATP content of the culture.)

The subject of another assay is KG-1 cells. The experiment in a line: Cell viability CTG assay, KG-1. The settings on record: Homo sapiens; KG-1, 72 h, 0.001-50 μM; read-out: KG-1 Geomean absolute IC50 by molecule, 72 H. The procedure, abridged: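 Cells exposed to compound at 0.25% v/v DMSO for 72 h (37° C., 5% CO2). ATP quantified by CellTiter-Glo luminescence, normalized to DMSO control. Absolute IC50 (T/C=50%) by non-linear regression on duplicate means; geometric mean used for averages.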

In another assay the test system is MOLP-2. The experiment in a line: Cell viability, additional cell lines (CellTiter-Glo), MOLP-2. The following applies: MOLP-2, 72 h. How it is done:
as §1, §2

For assay [1], the system named is Kelly cells. The experiment in a line: Cell viability CTG assay, Kelly. The following applies: 72 h, 0.001-50 μM, read-out: Kelly Geomean absolute IC50 by molecule, 72 H. The method, then: The effect of various compounds of the invention and various reference compounds on cell viability in various cell lines was investigated, using the Cell Viability—CTG Assay Protocol below. Hep3B, Kelly, H929, KG-1 and SNU-398 cells were maintained in respective cell medium (see Table 8, below). The cells were seeded on the 96-well or 384-white plates, and the compounds to be tested were added at the desired concentration range. Compounds are diluted in DMSO, and the DMSO concentration is kept constant at 0.25% v/v across the assay plate. After 72 h incubation (37° C., 5% CO2), CellTiter-Glo® Reagent (Promega/G7570) was added to the wells. Plates are shaken for 4 minutes and incubated for 8 minutes in the dark prior to reading luminescence (LU) by using the CLARIOstar Multimode Plate Reader. The signal is proportional to the amount of ATP, which is directly proportional to the number of cells present in the culture.
Luminescence (RLU) values were normalized to DMSO control. Dose response is assessed by non-linear regression and IC50 calculation with the average of technical duplicate of percentage inhibition. IC50 values are reported as absolute IC50 values, being the concentration of test compound at the intersection of the concentration-response curves with T/C=50%. For calculation of mean IC50 values the geometric mean is used.

In another assay the test system is MOLM-13. The experiment in a line: Cell viability, additional cell lines (CellTiter-Glo), MOLM-13. The settings on record: Homo sapiens, MOLM-13, 72 h. The method, then:
as §1, §2

The next assay concerns MOLM-6. The experiment in a line: Cell viability, additional cell lines (CellTiter-Glo), MOLM-6. The following applies: MOLM-6, 72 h. How it is done: as §1, §2
The next assay concerns IM-9. Kind of assay: Cell viability, additional cell lines (CellTiter-Glo), IM-9. The following applies: Homo sapiens, IM-9, 72 h; read-out: Absolute IC50. How it is done: as §1, §2
A further assay relates to MOLM-1. Kind of assay: Cell viability, additional cell lines (CellTiter-Glo), MOLM-1. The settings on record: MOLM-1, 72 h. The method, then:
as §1, §2

Another assay deals with EOL-1. The experiment in a line: Cell viability, additional cell lines (CellTiter-Glo), EOL-1. The settings on record: Homo sapiens, EOL1; EOL-1, 72 h; read-out: Absolute IC50. The method, then:
as §1, §2

Assay [2] has as its system Kelly cells. Kind of assay: Cell survival clonogenic assay, Kelly. The following applies: 0.1-10 μM, crystal violet staining after 9-10 days. The method, then:
To determine the ability of a single cell to form a colony (defined as a cluster of at least 50 cells), Kelly and Hep3B cells were maintained in RPM11640 (Kelly) or EMEM (Hep3B) medium, supplemented with penicillin/streptomycin and 10% FBS. The cells were counted and seeded on the 6-well plates, at the density of 1×10^3 cells per well, the compounds to be tested were added at the desired concentration range, and the cells were cultured at 37° C./5% CO2. After colony formation (9-10 days), the cells were washed and treated with 6.0% glutaraldehyde and 0.5% crystal violet mix for 30 min., followed by rinsing with water and drying at room temperature (RT).

The next assay relates to NCI-H929. Kind of assay: Cell viability, additional cell lines (CellTiter-Glo), NCI-H929. The following applies: Homo sapiens, NCI-H929, 72 h; read-out: Absolute IC50. How it is done:
as §1, §2

The subject of another assay is HEP-3B. The experiment in a line: Cell viability, additional cell lines (CellTiter-Glo), HEP-3B. The following applies: Homo sapiens, Hep3B, 72 h. The method, then:
as §1, §2

Where [3] appears, read: 9.5 μM, read-out: Test/Control viability at 9.5 μM.

One may read the IC50 as the concentration that gives 50% inhibition. `NCc1ccc2c(c1)CN(C1CCC(=O)NC1=O)C2=O` (centres unmarked) [Compound 1, 3-(5-(aminomethyl)-1-oxoisoindolin-2-yl)piperidine-2,6-dione]: the IC50 in the assay on OPM-2 was above 30000 nM; in the assay on KG-1 cells, at most 100 nM; in the assay with MOLP-2 (read-out: Absolute IC50) it was 100 to 1000 nM; in the assay on Kelly cells [1], 100 to 1000 nM; in the assay with MOLM-13 (read-out: Absolute IC50), at least 30000 nM; with MOLM-6 (read-out: Absolute IC50), 100 to 1000 nM. Also, the IC50 was above 30000 nM with IM-9; at most 100 nM with MOLM-1 (read-out: Absolute IC50); above 30000 nM in the assay with EOL-1; above 30000 nM in the assay with NCI-H929; 100 to 1000 nM with HEP-3B (read-out: Absolute IC50). The viability at 9.5 µM in the assay with MOLP-2 (setting [3]) is at most 60%; with MOLM-13 (setting [3]), at most 60%; in the assay on MOLM-6 (setting [3]), at most 60%; with MOLM-1 (setting [3]) it was at most 30%; in the assay on HEP-3B (setting [3]) it was at most 30%. In addition, the “survival of the cells (colony formation)” value with Kelly cells [2] is given as “in most cases inhibited”.
